# According to patent US20240210412A1, “SULFONYL-TRIAZOLE COMPOUNDS USEFUL AS LIGANDS AND INHIBITORS OF PROSTAGLANDIN REDUCTASE 2” (University of Virginia Patent Foundation, priority 2021, published 2024):
# What was measured:
# Assay in all cases: SILAC LC-MS ABPP
# Format in all cases: cell-based
# Conditions in all cases: 25 μM 2 h, live DM93 cells
# Q7Z460 = biological target: T1, Q7Z460 (Homo sapiens, UniProt Q7Z460)
# T1 construct: endogenous in cells; host or cells: DM93 cells (SILAC), live-cell treatment
# T1 sequence (Q7Z460 whole entry): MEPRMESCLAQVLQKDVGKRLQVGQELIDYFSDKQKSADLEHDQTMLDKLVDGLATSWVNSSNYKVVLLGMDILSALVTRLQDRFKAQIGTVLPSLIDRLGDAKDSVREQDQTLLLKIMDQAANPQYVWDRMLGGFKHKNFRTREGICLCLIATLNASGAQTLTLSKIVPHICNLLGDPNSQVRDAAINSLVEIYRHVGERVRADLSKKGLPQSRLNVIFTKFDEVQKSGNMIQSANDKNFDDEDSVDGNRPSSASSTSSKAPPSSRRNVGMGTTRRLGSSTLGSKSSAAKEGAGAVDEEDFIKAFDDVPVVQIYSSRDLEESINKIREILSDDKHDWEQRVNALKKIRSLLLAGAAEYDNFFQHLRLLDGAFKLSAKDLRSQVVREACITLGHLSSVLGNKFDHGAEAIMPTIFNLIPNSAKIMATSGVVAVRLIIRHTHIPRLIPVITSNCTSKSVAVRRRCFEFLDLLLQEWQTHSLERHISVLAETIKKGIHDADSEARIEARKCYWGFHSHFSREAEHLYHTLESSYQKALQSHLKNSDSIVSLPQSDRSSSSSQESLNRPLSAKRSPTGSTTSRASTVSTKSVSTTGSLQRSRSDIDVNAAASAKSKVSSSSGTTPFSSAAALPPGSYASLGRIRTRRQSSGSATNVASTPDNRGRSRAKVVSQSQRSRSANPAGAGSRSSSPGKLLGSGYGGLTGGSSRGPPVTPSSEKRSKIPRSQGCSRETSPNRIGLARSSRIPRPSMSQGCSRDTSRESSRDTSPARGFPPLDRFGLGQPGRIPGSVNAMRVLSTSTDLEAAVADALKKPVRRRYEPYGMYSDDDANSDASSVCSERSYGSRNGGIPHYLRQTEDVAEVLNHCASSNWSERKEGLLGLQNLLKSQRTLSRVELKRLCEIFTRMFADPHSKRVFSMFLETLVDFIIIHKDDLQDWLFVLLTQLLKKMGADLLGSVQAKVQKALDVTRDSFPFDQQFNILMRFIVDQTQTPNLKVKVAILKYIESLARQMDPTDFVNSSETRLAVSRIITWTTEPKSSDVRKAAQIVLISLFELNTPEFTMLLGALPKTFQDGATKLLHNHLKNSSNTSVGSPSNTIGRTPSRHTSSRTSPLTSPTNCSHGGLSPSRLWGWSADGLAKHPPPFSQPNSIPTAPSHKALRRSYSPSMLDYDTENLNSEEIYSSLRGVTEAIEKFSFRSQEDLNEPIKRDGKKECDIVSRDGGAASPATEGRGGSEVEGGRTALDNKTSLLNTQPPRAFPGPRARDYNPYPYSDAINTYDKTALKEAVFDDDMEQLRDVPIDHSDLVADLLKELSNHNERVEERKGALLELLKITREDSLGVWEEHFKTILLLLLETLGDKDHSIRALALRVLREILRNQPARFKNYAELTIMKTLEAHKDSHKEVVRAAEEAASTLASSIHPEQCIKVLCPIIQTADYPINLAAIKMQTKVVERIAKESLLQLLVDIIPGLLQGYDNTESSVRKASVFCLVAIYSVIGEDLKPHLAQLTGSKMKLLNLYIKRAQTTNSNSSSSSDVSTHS
# Method in brief: (§1)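 Ligand engagement is measured as loss of HHS-475 probe labelling at specific tyrosines. SILAC DM93 melanoma cells were treated in situ (25 μM ligand vs DMSO, 2 h, 37 °C; then 100 μM probe, 2 h), and modified peptides were quantified by high-resolution LC-MS/MS after desthiobiotin tagging and avidin capture.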
# Q8WVJ2 = biological target: T2, Q8WVJ2 (Homo sapiens, UniProt Q8WVJ2)
# T2 construct: endogenous in cells; host or cells: DM93 cells (SILAC), live-cell treatment
# Method in brief: as §1
# Q9NYF8 = biological target: T3, Q9NYF8 (Homo sapiens, UniProt Q9NYF8)
# T3 construct: endogenous in cells; host or cells: DM93 cells (SILAC)
# Method in brief: as §1
# P39019 = biological target: T4, P39019 (Homo sapiens, UniProt P39019)
# T4 construct: Probe-modified proteins from the soluble fraction were conjugated to a desthiobiotin-azide tag; endogenous in cells; host or cells: DM93 (SILAC)
# Method in brief: as §1
# P56945 = biological target: T5, P56945 (Homo sapiens, UniProt P56945)
# T5 construct: Probe-modified proteins from the soluble fraction were conjugated to a desthiobiotin-azide tag; endogenous in cells; host or cells: DM93 cells (SILAC)
# Method in brief: as §1
# Q92804 = biological target: T6, Q92804 (Homo sapiens, UniProt Q92804)
# T6 construct: endogenous in cells; host or cells: DM93 cells (SILAC), live-cell treatment
# T6 sequence (Q92804 whole entry): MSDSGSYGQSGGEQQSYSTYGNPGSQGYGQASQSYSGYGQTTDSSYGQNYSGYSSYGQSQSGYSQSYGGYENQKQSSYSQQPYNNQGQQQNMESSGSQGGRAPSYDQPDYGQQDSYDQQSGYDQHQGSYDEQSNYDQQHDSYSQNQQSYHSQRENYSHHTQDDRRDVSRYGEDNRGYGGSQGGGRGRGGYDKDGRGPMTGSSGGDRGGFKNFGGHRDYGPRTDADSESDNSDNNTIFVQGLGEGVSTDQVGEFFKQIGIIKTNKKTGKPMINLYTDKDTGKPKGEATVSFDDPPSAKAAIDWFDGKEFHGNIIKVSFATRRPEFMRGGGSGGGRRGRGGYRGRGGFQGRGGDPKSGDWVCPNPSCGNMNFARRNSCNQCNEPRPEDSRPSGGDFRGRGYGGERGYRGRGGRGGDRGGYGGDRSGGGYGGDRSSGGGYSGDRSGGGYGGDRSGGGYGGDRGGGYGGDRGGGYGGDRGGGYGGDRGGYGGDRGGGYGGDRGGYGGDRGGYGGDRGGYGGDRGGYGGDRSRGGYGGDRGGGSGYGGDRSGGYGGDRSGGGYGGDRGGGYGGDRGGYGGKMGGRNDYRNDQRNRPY
# Method in brief: as §1
# Q99797 = biological target: T7, Q99797 (Homo sapiens, UniProt Q99797)
# T7 construct: endogenous in cells; host or cells: DM93 cells (SILAC), treated live; soluble proteome analysed
# Method in brief: as §1
# Q9NVE7 = biological target: T8, Q9NVE7 (Homo sapiens, UniProt Q9NVE7)
# T8 construct: endogenous in cells; host or cells: DM93 cells (SILAC)
# T8 sequence (Q9NVE7 whole entry): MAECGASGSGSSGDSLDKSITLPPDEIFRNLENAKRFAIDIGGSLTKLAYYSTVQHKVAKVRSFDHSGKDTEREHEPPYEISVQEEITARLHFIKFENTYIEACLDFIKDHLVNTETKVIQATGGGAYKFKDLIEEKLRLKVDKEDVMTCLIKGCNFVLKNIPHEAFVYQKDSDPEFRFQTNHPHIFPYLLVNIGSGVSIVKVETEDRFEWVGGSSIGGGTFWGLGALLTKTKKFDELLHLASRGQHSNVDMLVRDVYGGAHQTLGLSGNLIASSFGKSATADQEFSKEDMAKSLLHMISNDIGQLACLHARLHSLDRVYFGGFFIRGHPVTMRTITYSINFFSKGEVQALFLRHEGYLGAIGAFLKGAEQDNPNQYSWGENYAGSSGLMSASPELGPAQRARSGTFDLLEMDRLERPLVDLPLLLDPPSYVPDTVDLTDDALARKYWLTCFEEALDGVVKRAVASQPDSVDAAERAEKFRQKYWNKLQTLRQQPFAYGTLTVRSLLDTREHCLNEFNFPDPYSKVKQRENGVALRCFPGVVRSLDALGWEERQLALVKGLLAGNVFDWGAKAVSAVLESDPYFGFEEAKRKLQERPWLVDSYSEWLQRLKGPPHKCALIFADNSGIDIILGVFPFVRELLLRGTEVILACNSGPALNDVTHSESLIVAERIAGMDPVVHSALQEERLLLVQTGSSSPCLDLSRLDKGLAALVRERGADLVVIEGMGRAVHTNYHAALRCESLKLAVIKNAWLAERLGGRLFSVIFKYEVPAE
# Method in brief: as §1
# Q9Y2W1 = biological target: T9, Q9Y2W1 (Homo sapiens, UniProt Q9Y2W1)
# T9 construct: endogenous in cells; host or cells: DM93 cells (SILAC)
# Method in brief: as §1
# P53992 = biological target: T10, P53992 (Homo sapiens, UniProt P53992)
# T10 construct: endogenous in cells; host or cells: DM93 cells (SILAC)
# Method in brief: as §1
# P78537 = biological target: T11, P78537 (Homo sapiens, UniProt P78537)
# T11 construct: performing SuTEx compound screening directly in cells; endogenous in cells; host or cells: DM93 cells (SILAC)
# T11 sequence (P78537 whole entry): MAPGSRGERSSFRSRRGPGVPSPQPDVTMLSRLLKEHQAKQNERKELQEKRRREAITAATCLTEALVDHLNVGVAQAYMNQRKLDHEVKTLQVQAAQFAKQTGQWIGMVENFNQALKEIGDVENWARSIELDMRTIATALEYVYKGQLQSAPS
# Method in brief: as §1
# Q16576 = biological target: T12, Q16576 (Homo sapiens, UniProt Q16576)
# T12 construct: performing SuTEx compound screening directly in cells; endogenous in cells; host or cells: DM93 cells (SILAC), soluble fraction
# T12 sequence (Q16576 whole entry): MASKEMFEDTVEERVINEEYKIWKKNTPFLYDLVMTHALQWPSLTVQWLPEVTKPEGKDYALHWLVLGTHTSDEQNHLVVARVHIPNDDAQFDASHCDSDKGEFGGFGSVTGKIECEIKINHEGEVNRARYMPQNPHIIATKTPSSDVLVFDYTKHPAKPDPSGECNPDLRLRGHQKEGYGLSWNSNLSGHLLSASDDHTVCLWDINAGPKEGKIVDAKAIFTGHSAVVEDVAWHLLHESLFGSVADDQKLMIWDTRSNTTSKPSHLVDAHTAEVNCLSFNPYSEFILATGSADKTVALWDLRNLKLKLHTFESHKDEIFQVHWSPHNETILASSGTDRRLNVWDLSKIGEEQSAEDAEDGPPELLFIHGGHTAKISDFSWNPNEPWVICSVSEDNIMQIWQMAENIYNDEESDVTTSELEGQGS
# Method in brief: as §1
# O95260 = biological target: T13, O95260 (Homo sapiens, UniProt O95260)
# T13 construct: endogenous in cells; host or cells: DM93 cells (SILAC)
# Method in brief: as §1
# P12268 = biological target: T14, P12268 (Homo sapiens, UniProt P12268)
# T14 construct: endogenous in cells; host or cells: DM93 cells (SILAC)
# T14 sequence (P12268 2-514 limits assumed): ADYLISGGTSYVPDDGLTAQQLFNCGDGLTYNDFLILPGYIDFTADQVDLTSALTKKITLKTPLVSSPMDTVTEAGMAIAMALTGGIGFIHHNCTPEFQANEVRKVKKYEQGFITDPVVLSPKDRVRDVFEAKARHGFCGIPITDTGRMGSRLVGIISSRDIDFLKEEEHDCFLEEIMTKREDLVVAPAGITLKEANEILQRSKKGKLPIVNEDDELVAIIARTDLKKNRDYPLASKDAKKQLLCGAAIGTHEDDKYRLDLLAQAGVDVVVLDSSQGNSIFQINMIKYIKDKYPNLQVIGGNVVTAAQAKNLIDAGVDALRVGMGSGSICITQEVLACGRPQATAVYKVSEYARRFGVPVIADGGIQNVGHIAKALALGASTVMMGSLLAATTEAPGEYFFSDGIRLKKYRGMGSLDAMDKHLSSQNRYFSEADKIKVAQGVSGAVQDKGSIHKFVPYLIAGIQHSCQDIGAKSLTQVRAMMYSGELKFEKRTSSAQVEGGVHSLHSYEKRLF
# Method in brief: as §1
# O95373 = biological target: T15, O95373 (Homo sapiens, UniProt O95373)
# T15 construct: endogenous in cells; host or cells: DM93 cells (SILAC)
# T15 sequence (O95373 whole entry): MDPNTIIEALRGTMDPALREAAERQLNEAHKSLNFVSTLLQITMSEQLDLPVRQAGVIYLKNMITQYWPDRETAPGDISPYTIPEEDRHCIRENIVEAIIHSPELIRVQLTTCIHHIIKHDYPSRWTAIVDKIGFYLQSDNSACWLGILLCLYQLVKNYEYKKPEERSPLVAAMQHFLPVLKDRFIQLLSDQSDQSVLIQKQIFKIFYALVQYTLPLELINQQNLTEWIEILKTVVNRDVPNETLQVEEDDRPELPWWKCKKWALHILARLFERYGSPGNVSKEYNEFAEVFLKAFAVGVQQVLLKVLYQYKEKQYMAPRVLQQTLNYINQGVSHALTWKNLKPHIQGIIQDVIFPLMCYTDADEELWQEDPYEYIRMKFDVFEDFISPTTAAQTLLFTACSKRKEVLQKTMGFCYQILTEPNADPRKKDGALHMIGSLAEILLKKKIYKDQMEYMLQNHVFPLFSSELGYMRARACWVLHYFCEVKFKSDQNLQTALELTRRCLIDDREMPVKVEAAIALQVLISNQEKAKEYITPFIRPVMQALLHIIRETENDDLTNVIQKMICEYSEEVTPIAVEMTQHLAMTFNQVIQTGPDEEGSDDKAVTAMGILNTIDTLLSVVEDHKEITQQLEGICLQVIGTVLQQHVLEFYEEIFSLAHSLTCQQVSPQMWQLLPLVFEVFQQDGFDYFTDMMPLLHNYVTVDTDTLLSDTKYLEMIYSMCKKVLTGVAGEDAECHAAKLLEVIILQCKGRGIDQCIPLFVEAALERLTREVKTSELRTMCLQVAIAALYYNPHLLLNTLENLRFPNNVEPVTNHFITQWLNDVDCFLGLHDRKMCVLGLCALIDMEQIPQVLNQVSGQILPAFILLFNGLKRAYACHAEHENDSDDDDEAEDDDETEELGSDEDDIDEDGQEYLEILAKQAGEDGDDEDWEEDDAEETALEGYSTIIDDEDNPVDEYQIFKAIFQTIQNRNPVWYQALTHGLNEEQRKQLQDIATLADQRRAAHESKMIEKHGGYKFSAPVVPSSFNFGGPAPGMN
# Method in brief: as §1
# P49721 = biological target: T16, P49721 (Homo sapiens, UniProt P49721)
# T16 construct: endogenous in cells; host or cells: DM93 cells (SILAC)
# Method in brief: as §1
# Q9HAU0 = biological target: T17, Q9HAU0 (Homo sapiens, UniProt Q9HAU0)
# T17 construct: endogenous in cells; host or cells: DM93 cells (SILAC), treated live; soluble proteome analysed
# Method in brief: as §1
smiles,measurement,setting,value
"O=C(NC1CC1)c1ccc(S(=O)(=O)n2cncn2)cc1 [HHS-0101, 4-((1H-1,2,4-triazol-1-yl)sulfonyl)-N-cyclopropylbenzamide]",liganded tyrosine site 1267,Q7Z460,HHS0101.Y|HHS0301.Y|HHS0401.Y (tyrosine sites that showed >80% reductions (SR >5) in probe labeling in cells treated with compounds (liganded sites))
same,liganded tyrosine site 145,Q8WVJ2,HHS0101.Y (tyrosine sites that showed >80% reductions (SR >5) in probe labeling in cells treated with compounds (liganded sites))
same,liganded tyrosine site 322,Q9NYF8,HHS0101.Y|HHS0201.Y|HHS0301.Y|HHS0401.Y (tyrosine sites that showed >80% reductions (SR >5) in probe labeling in cells treated with compounds (liganded sites))
"O=C(NCC1CC1)c1ccc(S(=O)(=O)n2cncn2)cc1 [HHS-0201, 4-((1H-1,2,4-triazol-1-yl)sulfonyl)-N-(cyclopropylmethyl)benzamide]",liganded tyrosine site 54,P39019,HHS0201.Y (tyrosine sites that showed >80% reductions (SR >5) in probe labeling in cells treated with compounds (liganded sites))
same,liganded tyrosine site 267,P56945,HHS0201.Y (tyrosine sites that showed >80% reductions (SR >5) in probe labeling in cells treated with compounds (liganded sites))
same,liganded tyrosine site 170,Q92804,HHS0201.Y|HHS0301.Y (tyrosine sites that showed >80% reductions (SR >5) in probe labeling in cells treated with compounds (liganded sites))
same,liganded tyrosine site 273,Q99797,HHS0201.Y (tyrosine sites that showed >80% reductions (SR >5) in probe labeling in cells treated with compounds (liganded sites))
same,liganded tyrosine site 338,Q9NVE7,HHS0201.Y|HHS0401.Y (tyrosine sites that showed >80% reductions (SR >5) in probe labeling in cells treated with compounds (liganded sites))
same,liganded tyrosine site 344,Q9Y2W1,HHS0201.Y|HHS0301.Y (tyrosine sites that showed >80% reductions (SR >5) in probe labeling in cells treated with compounds (liganded sites))
"O=C(NC1CCCCC1)c1ccc(S(=O)(=O)n2cncn2)cc1 [HHS-0301, 4-((1H-1,2,4-triazol-1-yl)sulfonyl)-N-cyclohexylbenzamide]",liganded tyrosine site 300,P53992,HHS0301.Y (tyrosine sites that showed >80% reductions (SR >5) in probe labeling in cells treated with compounds (liganded sites))
same,liganded tyrosine site 78,P78537,HHS0301.Y|HHS0401.Y|HHS0701.Y (tyrosine sites that showed >80% reductions (SR >5) in probe labeling in cells treated with compounds (liganded sites))
same,liganded tyrosine site 153,Q16576,HHS0301.Y|HHS0701.Y (tyrosine sites that showed >80% reductions (SR >5) in probe labeling in cells treated with compounds (liganded sites))
"O=C(NCc1ccccc1)c1ccc(S(=O)(=O)n2cncn2)cc1 [HHS-0401, 4-((1H-1,2,4-triazol-1-yl)sulfonyl)-N-benzylbenzamide]",liganded tyrosine site 63,O95260,HHS0401.Y|HHS0701.Y (tyrosine sites that showed >80% reductions (SR >5) in probe labeling in cells treated with compounds (liganded sites))
same,liganded tyrosine site 233,P12268,HHS0401.Y (tyrosine sites that showed >80% reductions (SR >5) in probe labeling in cells treated with compounds (liganded sites))
"O=C(c1ccc(S(=O)(=O)n2cncn2)cc1)N1CCC(c2ccccc2)CC1 [HHS-0701, (4-((1H-1,2,4-triazol-1-yl)sulfonyl)phenyl)(4-phenylpiperidin-1-yl)methanone]",liganded tyrosine site 416,O95373,HHS0701.Y (tyrosine sites that showed >80% reductions (SR >5) in probe labeling in cells treated with compounds (liganded sites))
same,liganded tyrosine site 455,O95373,HHS0701.Y (tyrosine sites that showed >80% reductions (SR >5) in probe labeling in cells treated with compounds (liganded sites))
same,liganded tyrosine site 134,P49721,HHS0701.Y (tyrosine sites that showed >80% reductions (SR >5) in probe labeling in cells treated with compounds (liganded sites))
same,liganded tyrosine site 553,Q9HAU0,HHS0701.Y (tyrosine sites that showed >80% reductions (SR >5) in probe labeling in cells treated with compounds (liganded sites))
